Laboratory results from patent US20250114460A1, “NOVEL PLK1 DEGRADATION INDUCING COMPOUND” (UPPTHERA, INC., priority 2021, published 2025).

Tests used:
Format in all cases: cell-based
PLK1 = molecular target: T1, PLK1 (Homo sapiens, UniProt P53350); experiment: Luciferase assay for PLK1 in HeLa LgBit (Plk1-HiBit KI) cell line; settings: 300 nM compound, luminescence after 9 hours
T1 construct: endogenous in cells; host or cells: HeLa LgBit (Plk1-HiBit KI): HeLa stably expressing LgBit, with a CRISPR/Cas9 knock-in of HiBit at the endogenous PLK1 locus
Method in brief: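 HeLa cells stably expressing LgBit, with HiBit knocked in at the C-terminus of endogenous Plk1, released from a 24 h 2 mM thymidine block and grown 18 h. Endurazine added, then compound at 300 nM; luminescence tracked in real time, expressed as ratio to DMSO.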

NCI-H526 cell line = experiment: Cell viability assay for H526 cell (EZ-Cytox); settings: Homo sapiens, NCI-H526, 120 h; H526 cells, 5 days, 3000 nM to 0.46 nM
Method in brief: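 NCI-H526 cells were exposed to compound in CO2 incubator culture for 5 days. Viability was read by EZ-Cytox absorbance at 450 nm after 3 min shaking, giving IC50 values.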

MRC-5 cell line = experiment: Cell viability assay for MRC-5 cell line (EZ-Cytox); settings: Homo sapiens, MRC5, 120 h; MRC-5 normal cell line, 5 days, 10000 nM to 1.52 nM; N.D. = no cytotoxicity until 10 μM; read-out: Activity: IC50 value of Exemplary Compound to MRC-5 cell line
Procedure: 4. Cell Viability Assay for MRC-5 Cell Line
(1) Culture of MRC-5 Cell Line
Passage of cultured cells was maintained within P15.
(2) Treatment of Compounds of the Present Invention
Then, it was cultured in 37° C.
(3) Cytotoxicity Experiment
CO2 incubator for 4 hours.

T1 sequence (P53350 whole entry): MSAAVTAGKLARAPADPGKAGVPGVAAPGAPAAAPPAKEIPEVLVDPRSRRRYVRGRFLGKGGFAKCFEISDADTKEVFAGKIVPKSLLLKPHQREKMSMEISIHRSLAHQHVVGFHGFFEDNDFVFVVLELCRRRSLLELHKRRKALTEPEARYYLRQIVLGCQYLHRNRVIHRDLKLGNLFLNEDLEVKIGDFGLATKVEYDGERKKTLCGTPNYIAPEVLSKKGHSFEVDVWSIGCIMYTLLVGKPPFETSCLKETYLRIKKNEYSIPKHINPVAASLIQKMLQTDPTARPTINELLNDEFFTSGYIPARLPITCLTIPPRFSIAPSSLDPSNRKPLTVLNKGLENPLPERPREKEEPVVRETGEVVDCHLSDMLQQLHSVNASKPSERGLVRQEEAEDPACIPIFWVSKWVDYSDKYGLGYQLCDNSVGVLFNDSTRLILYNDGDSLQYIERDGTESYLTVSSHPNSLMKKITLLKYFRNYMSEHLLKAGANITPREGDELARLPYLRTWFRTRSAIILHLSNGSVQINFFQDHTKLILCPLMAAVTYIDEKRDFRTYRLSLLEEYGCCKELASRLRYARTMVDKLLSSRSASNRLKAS

Q: Which results are given for `COc1cc(C(=O)NN2CCC(N3CCN(c4cccc5c4C(=O)N(C4CCC(=O)NC4=O)C5=O)CC3)C2)ccc1Nc1ncc2c(n1)N(C(C)C)CC(F)(F)C(=O)N2C` (stereo not drawn) [Compound 155, 4-((7,7-difluoro-9-isopropyl-5-methyl-6-oxo-6,7,8,9-tetrahydro-5H-pyrimido[4,5-b][1,4]diazepin-2-yl)amino)-N-(3-(4-(2-(2,6-dioxopiperidin-3-yl)-1,3-dioxoisoindolin-4-yl)piperazin-1-yl)pyrrolidin-1-yl)-3-methoxybenzamide]?
A: Activity: ratio of the luminescense value of each Exemplary Compound treatment group to DMSO treatment group (PLK1): + (+<0.7); IC50 (NCI-H526 cell line): < 100 nM; IC50 (MRC-5 cell line): > 10 µM

Q: For `COc1cc(C(=O)N[C@H]2CC[C@H](N(C)CCN3CCN(c4ccc5c(c4)C(=O)N(C4CCC(=O)NC4=O)C5=O)CC3)CC2)ccc1Nc1ncc2c(n1)N(C(C)C)CC(F)(F)C(=O)N2C` (stereo partly drawn) [Compound 156, 4-((7,7-difluoro-9-isopropyl-5-methyl-6-oxo-6,7,8,9-tetrahydro-5H-pyrimido[4,5-b][1,4]diazepin-2-yl)amino)-N-((1r,4r)-4-((2-(4-(2-(2,6-dioxopiperidin-3-yl)-1,3-dioxoisoindolin-5-yl)piperazin-1-yl)ethyl)(methyl)amino)cyclohexyl)-3-methoxybenzamide], which “Activity: ratio of the luminescense value of each Exemplary Compound treatment group to DMSO treatment group” value (shortened to “Activity: ratio”) (PLK1) is on record?
A: Its value is “++ (++<0.6)”.

Q: What about the IC50 (NCI-H526 cell line) of the same compound?
A: Its IC50 is under 50 nM.

Q: What about the IC50 (MRC-5 cell line) of the same compound?
A: The IC50 was over 10 µM.

Q: What does the source list for `COc1cc(C(=O)NN2CCC(CN3CCN(c4cccc5c4C(=O)N(C4CCC(=O)NC4=O)C5=O)CC3)C(F)(F)C2)ccc1Nc1ncc2c(n1)N(C(C)C)CC(F)(F)C(=O)N2C` (stereo not drawn) [Compound 157, 4-((7,7-difluoro-9-isopropyl-5-methyl-6-oxo-6,7,8,9-tetrahydro-5H-pyrimido[4,5-b][1,4]diazepin-2-yl)amino)-N-(4-((4-(2-(2,6-dioxopiperidin-3-yl)-1,3-dioxoisoindolin-4-yl)piperazin-1-yl)methyl)-3,3-difluoropiperidin-1-yl)-3-methoxybenzamide]?
A: Activity: ratio of the luminescense value of each Exemplary Compound treatment group to DMSO treatment group (PLK1): ++ (++<0.6); IC50 (NCI-H526 cell line): < 100 nM; IC50 (MRC-5 cell line): > 10 µM

Q: What does the source list for `COc1cc(C(=O)NN2CCC(CN3CCN(c4cccc5c4CN(C4CCC(=O)NC4=O)C5=O)CC3)C(F)(F)C2)ccc1Nc1ncc2c(n1)N(C(C)C)CC(F)(F)C(=O)N2C` (stereo not drawn) [Compound 158, 4-((7,7-difluoro-9-isopropyl-5-methyl-6-oxo-6,7,8,9-tetrahydro-5H-pyrimido[4,5-b][1,4]diazepin-2-yl)amino)-N-(4-((4-(2-(2,6-dioxopiperidin-3-yl)-1-oxoisoindolin-4-yl)piperazin-1-yl)methyl)-3,3-difluoropiperidin-1-yl)-3-methoxybenzamide]?
A: Activity: ratio of the luminescense value of each Exemplary Compound treatment group to DMSO treatment group (PLK1): +++ (+++: <0.3); IC50 (NCI-H526 cell line): < 50 nM; IC50 (MRC-5 cell line): 39.3 µM

Q: What does the source list for `COc1cc(C(=O)NN2CC(N3CCN(c4ccc5c(c4)C(=O)N(C4CCC(=O)NC4=O)C5=O)CC3)C2)ccc1Nc1ncc2c(n1)N(C(C)C)CC(F)(F)C(=O)N2C` (stereo not drawn) [Compound 159, 4-((7,7-difluoro-9-isopropyl-5-methyl-6-oxo-6,7,8,9-tetrahydro-5H-pyrimido[4,5-b][1,4]diazepin-2-yl)amino)-N-(3-(4-(2-(2,6-dioxopiperidin-3-yl)-1,3-dioxoisoindolin-5-yl)piperazin-1-yl)azetidin-1-yl)-3-methoxybenzamide]?
A: Activity: ratio of the luminescense value of each Exemplary Compound treatment group to DMSO treatment group (PLK1): ++ (++<0.6); IC50 (NCI-H526 cell line): < 30 nM; IC50 (MRC-5 cell line): 4.91 µM

Q: `COc1cc(C(=O)NN2CC(CN3CCN(c4cccc5c4C(=O)N(C4CCC(=O)NC4=O)C5=O)CC3)C2)ccc1Nc1ncc2c(n1)N(C(C)C)CC(F)(F)C(=O)N2C` (stereo not drawn) [Compound 161, 4-((7,7-difluoro-9-isopropyl-5-methyl-6-oxo-6,7,8,9-tetrahydro-5H-pyrimido[4,5-b][1,4]diazepin-2-yl)amino)-N-(3-((4-(2-(2,6-dioxopiperidin-3-yl)-1,3-dioxoisoindolin-4-yl)piperazin-1-yl)methyl)azetidin-1-yl)-3-methoxybenzamide] was tested. Which “Activity: ratio” value (PLK1) did it give?
A: Its value is “++ (++<0.6)”.

Q: What about the IC50 (NCI-H526 cell line) of the same compound?
A: The IC50 was under 30 nM.

Q: What about the IC50 (MRC-5 cell line) of the same compound?
A: The IC50 was over 10 µM.

Q: For `COc1cc(C(=O)NC2CCN(CC3CN(c4cc5c(cc4F)C(=O)N(C4CCC(=O)NC4=O)C5=O)C3)CC2)ccc1Nc1ncc2c(n1)N(C(C)C)CC(F)(F)C(=O)N2C` (stereo not drawn) [Compound 162, 4-((7,7-difluoro-9-isopropyl-5-methyl-6-oxo-6,7,8,9-tetrahydro-5H-pyrimido[4,5-b][1,4]diazepin-2-yl)amino)-N-(1-((1-(2-(2,6-dioxopiperidin-3-yl)-6-fluoro-1,3-dioxoisoindolin-5-yl)azetidin-3-yl)methyl)piperidin-4-yl)-3-methoxybenzamide], which “Activity: ratio” value (PLK1) is on record?
A: Its value is “++ (++<0.6)”.

Q: And the IC50 (NCI-H526 cell line)?
A: The IC50 was under 100 nM.

Q: What about the IC50 (MRC-5 cell line) of the same compound?
A: The IC50 was over 10 µM.

Q: Which results are given for `COc1cc(C(=O)NC2CC(N(C)C3CCN(c4cccc5c4C(=O)N(C4CCC(=O)NC4=O)C5=O)CC3)C2)ccc1Nc1ncc2c(n1)N(C(C)C)CC(F)(F)C(=O)N2C` (stereo not drawn) [Compound 164, 4-((7,7-difluoro-9-isopropyl-5-methyl-6-oxo-6,7,8,9-tetrahydro-5H-pyrimido[4,5-b][1,4]diazepin-2-yl)amino)-N-(3-((1-(2-(2,6-dioxopiperidin-3-yl)-1,3-dioxoisoindolin-4-yl)piperidin-4-yl)(methyl)amino)cyclobutyl)-3-methoxybenzamide]?
A: Activity: ratio of the luminescense value of each Exemplary Compound treatment group to DMSO treatment group (PLK1): ++ (++<0.6); IC50 (NCI-H526 cell line): < 30 nM; IC50 (MRC-5 cell line): > 10 µM

Q: How did the “Activity: ratio” value (PLK1) turn out when `COc1cc(C(=O)NC2CCC(N(C)C3CCN(c4cccc5c4C(=O)N(C4CCC(=O)NC4=O)C5=O)CC3)C2)ccc1Nc1ncc2c(n1)N(C(C)C)CC(F)(F)C(=O)N2C` (stereo not drawn) [Compound 165, 4-((7,7-difluoro-9-isopropyl-5-methyl-6-oxo-6,7,8,9-tetrahydro-5H-pyrimido[4,5-b][1,4]diazepin-2-yl)amino)-N-(3-((1-(2-(2,6-dioxopiperidin-3-yl)-1,3-dioxoisoindolin-4-yl)piperidin-4-yl)(methyl)amino)cyclopentyl)-3-methoxybenzamide] was run?
A: Its value is “++ (++<0.6)”.

Q: What about the IC50 (NCI-H526 cell line) of the same compound?
A: The IC50 was under 30 nM.

Q: What about the IC50 (MRC-5 cell line) of the same compound?
A: Its IC50 is over 10 µM.

Q: Which “Activity: ratio” value (PLK1) does the source give for `COc1cc(C(=O)NN2CCN(C3CCN(c4cccc5c4C(=O)N(C4CCC(=O)NC4=O)C5=O)CC3(F)F)CC2)ccc1Nc1ncc2c(n1)N(C(C)C)CC(F)(F)C(=O)N2C` (stereo not drawn) [Compound 167, 4-((7,7-difluoro-9-isopropyl-5-methyl-6-oxo-6,7,8,9-tetrahydro-5H-pyrimido[4,5-b][1,4]diazepin-2-yl)amino)-N-(4-(1-(2-(2,6-dioxopiperidin-3-yl)-1,3-dioxoisoindolin-4-yl)-3,3-difluoropiperidin-4-yl)piperazin-1-yl)-3-methoxybenzamide] here?
A: The value was “+++ (+++: <0.3)”.

Q: And the IC50 (NCI-H526 cell line)?
A: Its IC50 is under 30 nM.

Q: What about the IC50 (MRC-5 cell line) of the same compound?
A: Its IC50 is over 10 µM.

Q: `COc1cc(C(=O)N[C@H]2CC[C@H](N3CCN(CCOCCNc4cccc5c4C(=O)N(C4CCC(=O)NC4=O)C5=O)CC3)CC2)ccc1Nc1ncc2c(n1)N(C1CCCC1)CC(F)(F)C(=O)N2C` (stereo partly drawn) [Compound 194, 4-((9-cyclopentyl-7,7-difluoro-5-methyl-6-oxo-6,7,8,9-tetrahydro-5H-pyrimido[4,5-b][1,4]diazepin-2-yl)amino)-N-((1r,4r)-4-(4-(2-(2-((2-(2,6-dioxopiperidin-3-yl)-1,3-dioxoisoindolin-4-yl)amino)ethoxy)ethyl)piperazin-1-yl)cyclohexyl)-3-methoxybenzamide] was tested. Which “Activity: ratio” value (PLK1) did it give?
A: Its value is “++ (++<0.6)”.

Q: And the IC50 (NCI-H526 cell line)?
A: Its IC50 is under 50 nM.

Q: And the IC50 (MRC-5 cell line)?
A: The IC50 was over 10 µM.

Q: What does the source list for `COc1cc(C(=O)N[C@H]2CC[C@H](N3CCN(CCCNc4cccc5c4C(=O)N(C4CCC(=O)NC4=O)C5=O)CC3)CC2)c(F)cc1Nc1ncc2c(n1)N(C1CCCC1)CC(F)(F)C(=O)N2C` (stereo partly drawn) [Compound 197, 4-((9-cyclopentyl-7,7-difluoro-5-methyl-6-oxo-6,7,8,9-tetrahydro-5H-pyrimido[4,5-b][1,4]diazepin-2-yl)amino)-N-((1r,4r)-4-(4-(3-((2-(2,6-dioxopiperidin-3-yl)-1,3-dioxoisoindolin-4-yl)amino)propyl)piperazin-1-yl)cyclohexyl)-2-fluoro-5-methoxybenzamide]?
A: Activity: ratio of the luminescense value of each Exemplary Compound treatment group to DMSO treatment group (PLK1): ++ (++<0.6); IC50 (NCI-H526 cell line): < 50 nM; IC50 (MRC-5 cell line): 18 µM

Q: How did the “Activity: ratio” value (PLK1) turn out when `COc1cc(C(=O)NN2CCN(C3CN(c4ccc5c(c4)C(=O)N(C4CCC(=O)NC4=O)C5=O)C3)CC2)ccc1Nc1ncc2c(n1)N(C1CCCC1)CC(F)(F)C(=O)N2C` (stereo not drawn) [Compound 201, 4-((9-cyclopentyl-7,7-difluoro-5-methyl-6-oxo-6,7,8,9-tetrahydro-5H-pyrimido[4,5-b][1,4]diazepin-2-yl)amino)-N-(4-(1-(2-(2,6-dioxopiperidin-3-yl)-1,3-dioxoisoindolin-5-yl)azetidin-3-yl)piperazin-1-yl)-3-methoxybenzamide] was run?
A: The value was “+++ (+++: <0.3)”.

Q: What about the IC50 (NCI-H526 cell line) of the same compound?
A: The IC50 was under 50 nM.

Q: What about the IC50 (MRC-5 cell line) of the same compound?
A: Its IC50 is over 10 µM.
